One experiment has as its system RSV A2. Nature of the experiment: RSV NHBE EC50 (RSV A2 antiviral assay in NHBE cells). The experiment is classed as cell-based. The following applies: human respiratory syncytial virus, NHBE, read-out: RSV NHBE EC50. A digest of the protocol: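 Step 1: seed NHBE cells (7,500/well, BEGM) overnight. Step 2: add 3-fold diluted compound, DMSO 0.05%. Step 3: infect with RSV A2, 1×10^4.5 TCID/mL; incubate 4 days, 37° C. Step 4: CellTiter-Glo luminescence.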

For the next experiment, the system named is HRV16. Nature of the experiment: HRV16 HeLa EC50 (cytopathic effect in H1-HeLa cells). The experiment is classed as cell-based. The following applies: read-out: HRV16 HeLa EC50. In short, it runs like this: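 Read-out is luminescent cell viability (CellTiter-Glo) after 96 h of infection at 33 °C, scaled between uninfected and infected-untreated wells. Before infection with titrated virus, compounds went onto H1-HeLa cells as triplicate 3-fold dilution series.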

The test system of experiment [1] is Dengue serotype 2 New Guinea C (NGC) strain. Nature of the experiment: DENV-2 Huh-7 EC50 (qPCR in Huh7 cells). The experiment is classed as cell-based. The following applies: Dengue virus, Huh-7; Table 5 comparative activity, 2',3'-OH vs -OC(O)iPr; read-out: DENV Huh7 EC50. As to the method:
Huh7 (Human hepatocarcinoma 7) cells were maintained in 10% FCS-containing DMEM complete media. On the day of the assay, cells were trypsinized (0.1% Trypsin-EDTA), washed and infected for 2 hours in serum-free DMEM with Dengue serotype 2 New Guinea C (NGC) strain at MOI=0.1 with gentle agitation at 37° C. After 2 hours, cells were washed with serum-free media and suspended in 10% FCS-containing DMEM (Gibco, supplemented with sodium pyruvate, NEAA, Penicillin-Streptomycin). 10^5 cells were plated in triplicate in 96-well plates with compounds dispensed at graded doses (Hewlett-Packard D300 Digital Dispenser). All wells were normalized to 0.25% DMSO. At 48 hours, cells were washed with 1×PBS and all supernatants removed. Total RNA was extracted using RNEasy 96 plates (Qiagen) and used to generate first-strand cDNA using XLT cDNA 5× Supermix (QuantaBio). cDNA was used as a template in a Taqman qPCR duplex reaction specific to DENV2 viral and GAPDH gene expression. EC50 values were determined using Prism Graphpad software, with normalization to a positive control and no compound negative control wells.

The test system of another experiment is HCV Rep 1B. Nature of the experiment: HCV Rep 1B EC50 (replicon luciferase). The following applies: Hepatitis C virus. The class given is cell-based. As to the method:
(§1) Compounds were serially diluted in ten steps of 1:3 dilutions in 384-well plates. All serial dilutions were performed in four replicates per compound within the same 384-well plate. […] To each well of a black polystyrene 384-well plate (Greiner Bio-one, Monroe, NC), 90 μL of cell culture medium (without Geneticin) containing 2000 suspended HCV replicon cells was added with a Biotek μFlow workstation. For compound transfer into cell culture plates, 0.4 μL of compound solution from the compound serial dilution plate was transferred to the cell culture plate on a Biomek FX workstation. The DMSO concentration in the final assay wells was 0.44%. The plates were incubated for 3 days at 37° C. with 5% CO2 and 85% humidity. The HCV replicon assay was a multiplex assay, able to assess both cytotoxicity and antireplicon activity from the same well. The CC50 assay was performed first. The media in the 384-well cell culture plate was aspirated, and the wells were washed four times with 100 μL of PBS each, using a Biotek ELX405 plate washer. A volume of 50 μL of a solution containing 400 nM calcein AM (Anaspec, Fremont, CA) in 1×PBS was added to each well of the plate with a Biotek μFlow workstation. The plate was incubated for 30 min at room temperature before the fluorescence signal (excitation 490 nm, emission 520 nm) was measured with a Perkin-Elmer Envision plate reader. The EC50 assay was performed in the same wells as the CC50 assay. The calcein-PBS solution in the 384-well cell culture plate was aspirated with a Biotek ELX405 plate washer. A volume of 20 μL of Dual-Glo luciferase buffer (Promega, Madison, WI) was added to each well of the plate with a Biotek μFlow Workstation. The plate was incubated for 10 min at room temperature. A volume of 20 μL of a solution containing a 1:100 mixture of Dual-Glo Stop & Glo substrate (Promega, Madison, WI) and Dual-Glo Stop & Glo buffer (Promega, Madison, WI) was added to each well of the plate with a Biotek μFlow Workstation. The plate was then incubated at room temperature for 10 min before the luminescence signal was measured with a Perkin-Elmer Envision Plate Reader.
A general note: Replicon systems follow genome replication, usually without infectious particles.

For a further experiment, the system named is HCV Rep 2A. Nature of the experiment: HCV Rep 2A EC50 (replicon luciferase). The class given is cell-based. The settings on record: Hepatitis C virus. As to the method:
as §1

Another experiment concerns RSV strain A2. Nature of the experiment: microbe, parasite or virus in culture. The experiment is classed as cell-based. The following applies: human respiratory syncytial virus, HEp-2, 96 h, Table 3; HEp-2 cells, RSV A2, 4 days; read-out: RSV HEp-2 EC50. In short, it runs like this: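 Cytopathic-effect protection assay: HEp-2 cells (50,000/mL) infected with pre-titered RSV A2 onto 3-fold serial compound dilutions, incubated 4 days at 37° C. Cell viability read by CellTiter-Glo luminescence; percent inhibition derived against 0% and 100% virus-inhibition controls.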

The subject of the next experiment is DENV2 replicon. Nature of the experiment: DENV-2 Huh-7 Rep EC50 (replicon luminescence). The settings on record: Dengue virus, DENV2, Huh-7, 48 h. The experiment is classed as cell-based. In short, it runs like this: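 EC50 derived from luminescence dose-response, normalised to DMSO-only 0% inhibition wells, after 1.5 h with EnduRen substrate. Compounds were first exposed for 48 h at 37° C to DENV2 replicon Huh-7 cells (5,000/well).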

Experiment [2] concerns Dengue 2, New Guinea strain (NGC). Nature of the experiment: DENV moDC EC50 (qPCR in human monocyte-derived dendritic cells). The following applies: Dengue virus, Dendritic cell; Table 3; human moDCs, 48 hours. The experiment is classed as cell-based. On the procedure: Human monocyte-derived dendritic cells (moDCs) were derived from CD14+ monocytes (AllCells) cultured in Human Mo-DC Differentiation medium containing GM-CSF and IL-4 (Miltenyi Biotec). On day 7, moDCs were harvested by mechanical disruption, washed and suspended in serum-free RPMI. moDCs were infected with Vero-derived Dengue 2, New Guinea strain (NGC) at a MOI=0.1 for two hours in serum-free RPMI with gentle agitation at 37° C. Cells were washed and resuspended in 10% serum-containing RPMI (Gibco, supplemented with sodium pyruvate, NEAA, Penicillin-Streptomycin). […] were plated in triplicate in 96-well plates with compounds dispensed at graded doses (Hewlett-Packard D300 Digital Dispenser). All wells were normalized to 0.25% DMSO. At 48 hours, cells were washed with 1×PBS and all supernatants removed. Total RNA was extracted using RNEasy 96 plates (Qiagen) and used to generate first-strand cDNA using XLT cDNA 5× Supermix (QuantaBio). cDNA was used as a template in a Taqman qPCR duplex reaction specific to DENV2 viral and GAPDH gene expression. EC50 values were determined using Prism Graphpad software, with normalization to a positive control and no compound negative control wells.
(Real-time PCR tracks product formation cycle by cycle.)

The target of a further experiment is DENV2 NS5 (Dengue virus type 2, UniProt P14340). Nature of the experiment: DENV Pol IC50 (DENV2-NS5 polymerase assay). The experiment is classed as biochemical. The settings on record: nucleotide triphosphate. As to the method:
A 244 nucleotide secondary structureless heteropolymeric RNA (sshRNA) with sequence 5′-(UCAG)20(UCCAAG)14(UCAG)20-3′ (SEQ ID NO: 1) is used as the template with 5′-CUG-3′ primer in the DENV2-NS5 polymerase assay. Six two-fold dilutions of compounds starting from 200 nM and no inhibitor control are plated in 96-well plates. 100 nM DENV2 NS5 is preincubated for 5 minutes at room temperature in a reaction mixture containing 40 mM Tris-HCl (pH 7.5), 10 mM NaCl, 3 mM DTT, 0.2 unit/μL RNasin Plus RNase Inhibitor, 200 ng/μL sshRNA, 20 μM CUG and 2 mM MgCl2. Enzyme mix is added to compound dilutions and reactions initiated by the addition of a mixture containing 20 μM of three natural NTP plus 2 μM of analog:base matched competing natural NTP containing 1:100 α-33P-NTP. After 90 minutes at 30° C., 5 μL of the reaction mixtures are spotted on DE81 anion exchange paper. Filter papers are washed three times with Na2HPO4 (125 mM, pH 9) for 5 minutes, rinsed with water and ethanol, then air-dried and exposed to phosphorimager. Synthesized RNA is quantified using Typhoon Trio Imager and Image Quant TL Software and reaction rates are calculated by linear regression using GraphPad Prism 5.0. IC50 values are calculated in Prism by non-linear regression analysis using the dose-response (variable slope) equation (four-parameter logistic equation): Y=Bottom+(Top-Bottom)/(1+10^((Log IC50−X)*HillSlope)).

Experiment [3] addresses T1, POLRMT (Homo sapiens, UniProt O00411). Nature of the experiment: Single nucleotide incorporation by human mitochondrial RNA polymerase (POLRMT). The experiment is classed as biochemical. The following applies: nucleotide triphosphate. As to the method: A mixture of MTCN buffer (50 mM MES, 25 mM Tris-HCl, 25 mM CAPS, and 50 mM NaCl, pH 7.5), 200 nM 5′^32 P-R12/D18, 10 mM MgCl2, 1 mM DTT, and 376 nM POLRMT was preincubated at 30° C. for 1 min. The reaction was started by addition of 500 μM (final) natural NTP or NTP analogs. At selected time points, the reaction mixture was removed and quenched with gel loading buffer containing 100 mM EDTA, 80% formamide, and bromophenol blue, and heated at 65° C. for 5 min. The samples were run on a 20% polyacrylamide gel (8 M urea), and the product formation was quantified using Typhoon Trio Imager and Image Quant TL Software (GE Healthcare, Piscataway, NJ). The rate of single nucleotide incorporation by mt RNA pol was calculated by fitting the product formation using the single exponential equation: [1R13]=A(1−e^−kt), where [1R13] represents the amount (in nM) of the elongated product formed, t represents the reaction time, k represents the observed rate, and A represents the amplitude of the exponential.

Experiment [4] deals with T1, POLRMT. Nature of the experiment: Inhibition of human mitochondrial RNA polymerase (POLRMT). The class given is biochemical. The settings on record: nucleotide triphosphate. As to the method: All reaction mixtures contained 50 mM Tris-HCl buffer (pH 8.0), 0.2 mg/ml BSA, 2 mM DTT, 0.05 mg/ml activated fish sperm DNA, 10 mM MgCl2, 1.3 μCi [α-^33P]dTTP (3,000 Ci/mmol), and 2 μMeach of dATP, dGTP, and TTP. The optimal enzyme concentrations were chosen to be in the linear range of enzyme concentration ([E]) versus activity, and the reaction time was selected to ensure that 10% of the substrate was consumed. All reactions were run at 37° C. […] The reactions were heated to 32° C. and initiated by adding 2.5 μM each of the four natural NTPs and 1.5 μCi of [^33P]GTP. After incubation for 30 min at 32° C., the reactions were spotted on DE81 paper before being processed for quantification.

[5] abbreviates: 96 h, Table 3, NHBE cells, RSV A2, 4 days.

Where two headings read alike, the source gives them in different places.

T1 sequence (O00411 42-1230): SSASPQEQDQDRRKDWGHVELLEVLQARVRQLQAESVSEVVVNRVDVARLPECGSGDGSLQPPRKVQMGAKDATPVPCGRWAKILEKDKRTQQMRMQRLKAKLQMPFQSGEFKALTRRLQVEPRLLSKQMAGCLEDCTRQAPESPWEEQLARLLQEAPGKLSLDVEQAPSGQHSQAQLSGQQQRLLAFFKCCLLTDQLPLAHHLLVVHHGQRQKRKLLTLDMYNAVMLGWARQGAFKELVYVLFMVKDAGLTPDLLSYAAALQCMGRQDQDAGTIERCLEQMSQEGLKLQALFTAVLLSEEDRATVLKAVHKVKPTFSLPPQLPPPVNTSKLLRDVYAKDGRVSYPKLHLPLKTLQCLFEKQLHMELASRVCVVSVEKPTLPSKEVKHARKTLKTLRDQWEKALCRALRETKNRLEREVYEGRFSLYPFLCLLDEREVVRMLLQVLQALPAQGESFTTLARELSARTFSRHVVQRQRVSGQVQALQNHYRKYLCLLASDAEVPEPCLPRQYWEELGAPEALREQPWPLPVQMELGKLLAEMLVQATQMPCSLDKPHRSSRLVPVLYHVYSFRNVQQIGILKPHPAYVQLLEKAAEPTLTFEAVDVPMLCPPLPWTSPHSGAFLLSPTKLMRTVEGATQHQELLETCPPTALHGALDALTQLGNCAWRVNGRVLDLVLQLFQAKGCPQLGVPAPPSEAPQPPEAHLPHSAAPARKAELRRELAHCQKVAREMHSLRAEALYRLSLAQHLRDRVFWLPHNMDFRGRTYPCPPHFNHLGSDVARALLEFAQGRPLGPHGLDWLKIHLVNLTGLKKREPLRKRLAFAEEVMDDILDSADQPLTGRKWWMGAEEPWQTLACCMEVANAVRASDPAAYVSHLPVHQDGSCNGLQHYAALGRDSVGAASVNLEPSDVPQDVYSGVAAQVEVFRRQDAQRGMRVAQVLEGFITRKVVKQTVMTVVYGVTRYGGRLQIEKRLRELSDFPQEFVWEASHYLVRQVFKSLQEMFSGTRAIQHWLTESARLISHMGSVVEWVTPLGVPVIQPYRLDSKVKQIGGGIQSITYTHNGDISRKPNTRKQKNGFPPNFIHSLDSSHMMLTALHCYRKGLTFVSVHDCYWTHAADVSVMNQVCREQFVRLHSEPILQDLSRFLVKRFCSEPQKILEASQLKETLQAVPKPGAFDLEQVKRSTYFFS

A word on the EC50: it is the midpoint of the concentration-response curve. As to `COC(=O)[C@H](C)N[P@](=O)(OC[C@@]1(C#N)O[C@@H](c2ccc3c(N)ncnn23)[C@H](O)[C@@H]1O)Oc1ccccc1` [Example 52, methyl ((S)-(((2R,3S,4R,5S)-5-(4-aminopyrrolo[2,1-f][1,2,4]triazin-7-yl)-2-cyano-3,4-dihydroxytetrahydrofuran-2-yl)methoxy)(phenoxy)phosphoryl)-L-alaninate], the EC50 is 252 nM with RSV A2 (Table 5 comparative activity, 2',3'-OH vs -OC(O)iPr); 1250 nM with HRV16 (HeLa, Table 5 comparative activity, 2',3'-OH vs -OC(O)iPr); 5480 nM in experiment [1]; 3960 nM in the experiment with HCV Rep 1B (Table 5 comparative activity, 2',3'-OH vs -OC(O)iPr, read-out: HCV Rep1B EC50); 7460 nM with HCV Rep 2A (Table 5 comparative activity, 2',3'-OH vs -OC(O)iPr, read-out: HCV Rep2A EC50).

As to `CCC(=O)O[C@H]1[C@H](c2ccc3c(N)ncnn23)O[C@](C#N)(COP(=O)(N[C@@H](C)C(=O)OCC2CCC2)N[C@@H](C)C(=O)OCC2CCC2)[C@H]1OC(=O)CC` [Example 125, ((2R,3S,4R,5S)-5-(4-aminopyrrolo[2,1-f][1,2,4]triazin-7-yl)-2-cyano-3,4-dipropionatetetrahydrofuran-2-yl)methyl bis-cyclobutylmethyl L-alaninate phosphate], the EC50 was found to be 700 nM in the experiment with RSV strain A2; 79 nM in the experiment with RSV A2 (setting [5]); 2030 nM with HRV16 (96 h, Table 3, H1-HeLa cells, 96 h); 48700 nM in the experiment on DENV2 replicon (read-out: DENV-2 REP Huh7 EC50, Table 3, Huh-7 DENV2 replicon cells, 48 hours); 20700 nM in [2].

`COC(=O)[C@H](C)N[P@](=O)(OC[C@@]1(C#N)O[C@@H](c2ccc3c(/N=C/N4CCN(C)CC4)ncnn23)[C@H](OC(=O)C(C)C)[C@@H]1OC(=O)C(C)C)Oc1ccccc1` [Example 261, (2R,3S,4S,5S)-2-cyano-2-((((S)-(((S)-1-methoxy-1-oxopropan-2-yl)amino)(phenoxy)phosphoryl)oxy)methyl)-5-(4-(((E)-(4-methylpiperazin-1-yl)methylene)amino)pyrrolo[2,1-f][1,2,4]triazin-7-yl)tetrahydrofuran-3,4-diyl bis(2-methylpropanoate)]: the EC50 in the experiment on RSV strain A2 stood at 42 nM; in the experiment on RSV A2 (setting [5]), 13 nM; in the experiment with DENV2 replicon (read-out: DENV-2 REP Huh7 EC50), 2340 nM; in the experiment with HCV Rep 1B (72 h, Table 4, replicon cells, 3 days, read-out: HCV Rep 1B EC50), 524 nM; in the experiment with HCV Rep 2A (72 h, Table 4, replicon cells, 3 days, read-out: HCV Rep 2A EC50) it was 1220 nM.

The term IC50 denotes the concentration that inhibits the measured activity by half. As for `[N-]=[N+]=N[C@]1(COP(=O)(O)OP(=O)(O)OP(=O)(O)O)O[C@@H](c2ccc3c(N)ncnn23)[C@H](O)[C@@H]1O` [—N3], the IC50 against DENV2 NS5 was determined as 140 nM; against POLRMT [4], 900 nM. Also, the “POLRMT SNI %” value on POLRMT [3] amounted to 132%.
